In publication PMC12426930, “Antioxidant, Hypotensive, and Antidiabetic Breakthroughs: Bromelain Hydrolysis Unlocks Quinoa’s Peptide Potential - In Silico and In Vitro Approach” (Journal of Agricultural and Food Chemistry, 2025):
Several values for one entry are separate records, joined by “and”; a condition that tells them apart may be missing. Identical values can stand only once. Entries after “also recorded” stand apart in the source; their conditions may differ. Marks after values point to notes of the source that are not given here.

Assays:
[1] = tested on: ACE-I; settings: pearl garlic peptides; ref Yudho-Sutopo et al. [121]; read-out: ACE-I inhibition IC50; cited from earlier work
Description: Yudho-Sutopo et al. reported the ACE-I inhibitory activity of four synthetic peptides from pearl garlic (DHSTAVW, KLAKVF, KLSTAASF, and KETPEAHVF). […] According to Yudho-Sutopo et al., the hydrophobic amino acid in the C-terminal and amino acids with a positively charged side-chain amino group, like in DHSTAVW, are determinants in the inhibition of ACE-I. Furthermore, a study by Zheng et al. reported an ACE-I inhibitory peptide – RGQVIYVL – from Chenopo ...

[2] = tested on: LOX; settings: cited from earlier work; for anti-LOX activity (inhibition): 1 mg/mL, velvet antler blood peptides, ref Ding et al. [119]
Description: Ding et al. evaluated eight peptides from velvet antler blood (LFP, FPH, EHF, VGYP, FSAL, LSQKFPK, HHGGEFTPV, and LKECCDKPV) for anti-LOX activity. […] Karas et al. reported six LOX-inhibitory peptides from millet grain (RLARAGLAQ, YGNPVGGVGH, EQGFLPGP ...

[3] = tested on: angiotensin I converting enzyme; assay: ACE-I inhibitory activity (fluorometric kit CS0002); assay type: biochemical
Protocol: ACE-I inhibitory assay was determined by ACE-I activity assay kit (fluorometric, CS0002). This assay is based on the hydrolysis of angiotensin I by ACE to yield angiotensin II. Briefly, all reagents were diluted in the assay buffer, and a total of 50 μL of peptide sample, positive control (captopril PHR1307), and assay buffer (blank) were added to a 96-well black plate. The standard was added at 0, 0.1, 0.2, 0.3, 0.4, 0.5, 0.6, and 0.8 nmol and adjusted to a final volume of 100 μL. […] Finally, fluorescence (λex, 320 nm; λem, 405 nm) was measured in five cycles for 5 min. Linear regressions were determined to calculate the enzymatic activity for each sample per concentration. Thus, one unit was defined as the amount of enzyme that releases 1 nmol of fluorescent substrate in 1 min at 37 °C. Finally, the inhibition (%) of each peptide and positive control was determined using regression analysis of the corresponding dose–response curves.

[4] = tested on: rat intestinal acetone α-glucosidase; assay: α-Glucosidase inhibition; assay type: biochemical; settings: 2 mM maltose, pH 6.9, 37 °C, mean ± SD, n = 9
Protocol: α-Glucosidase inhibition assay was measured following the method of Vilcacundo et al., with slightly modifications. First, 100 μL of sample ([…]), positive control (1 mM acarbose), and/or negative control (Milli-Q-water), were added to 50 μL of rat intestinal acetone α-glucosidase (1 U/mL in 0.1 M, maleate buffer pH 6.9), and the mixture was incubated at 37 °C for 5 min. Then, 50 μL of substrate (2 mM maltose) was added into each tube, which was performed in a Thermomixer (37 °C, 1000 rpm, for 30 min). Finally, the reaction was stopped at 100 °C for 5 min. The glucose concentration in the reaction was measured using GOPOD (glucose oxidase/peroxidase) from Megazyme, with absorbance measured at 560 nm (Gen5 software, version 1.1, BioTek Instruments, Winooski, VT, USA). The percentage of inhibition was calculated relative to the non-inhibited control (negative control).

[5] = tested on: human DPP-IV; assay: DPP-IV inhibitory activity; assay type: biochemical; settings: H-Gly-Pro-pNA, 37 °C, mean ± SD, n = 9
Protocol: Dipeptidyl peptidase-IV (DPP-IV) inhibitory activity was measured following the method by Vilcacundo et al., with slightly modifications. […] For the negative control 70 μL of Tris Buffer was added. Finally, 100 μL of substrate (H-Gly-Pro-pNA, 100 mM) was added to all wells. The reaction was performed at 37 °C in the microplate reader (BioTek Instruments, Winooski, VT, USA), and the reaction was read at 405 nm for 30 min, with reading intervals of 2 min. Finally, data were plotted and fitted to a logarithmic regression to obtain dose–response curves.

[6] = tested on: 15-LOX enzyme (soybean lipoxygenase); assay: Lipoxygenase inhibitor screening assay (LOX); assay type: biochemical; settings: 31.25 μM; linoleic acid 1 mM, RT, 490 nm
Protocol: Lipoxygenase inhibitory activity assay (LOX) was determined following the manufacturer’s instructions (#760700). Thus, peptide concentrations (31.25–125 μM) were prepared with the assay buffer and tested in triplicate. First, 10 μL of the peptides at each concentration was mixed with 90 μL of 15-LOX enzyme (soybean lipoxygenase) in a 96-well plate. Then, three wells each contained assay buffer as blank (without enzyme), assay buffer as vehicle (with enzyme), and 15-LOX as positive control. Afterward, 10 μL of linoleic acid (1 mM) (substrate) was added to all wells and shaken for 10 min at RT. Finally, 100 μL of chromogen was added to all wells, and the plate was sealed and shaken for an additional 5 min at RT. The final reaction was measured at 490 nm, and the percentage of inhibition was calculated as. %inhibition=[1−Correctedvaluesofpeptide/Correctedvaluesofvehicle]×100

[7] = Fe^2+ chelation assay; settings: 125 μM; ferrozine, pH 4.9, 37 °C, 10 min; mean ± SD, n = 9
Protocol: Fe^2+ chelation assay was measured according to Sanchez-Velazquez et al. with slightly modifications. 25 μL of sample (synthetic peptides, […]) or positive control (EDTA, 0.1 μg/μL) was added to 225 μL of buffer (sodium acetate, 100 mM, pH 4.9), then 15 μL of iron solution (0.1%, w/v) and 9 μL of ferrozine (40 mM) were added to start the reaction. For the blank well, 250 μL of buffer was added to the iron solution and ferrozine. The reaction was incubated 10 min at 37 °C and then read at 562 nm (SPARK-10M, TECAN, Switzerland). Fe^2+ chelating activity was calculated as described previously for copper.

[8] = Oxygen radical absorbance capacity (ORAC) assay; settings: AAPH, fluorescein, 37 °C, 150 min
Protocol: Oxygen radical absorbance capacity (ORAC) assay was performed following the method of Carvalho-Oliveira et al. Briefly, 30 μL of peptide (different concentrations 50–1000 μM) or standard (Trolox at 0–160 μM) were placed in a black 96-well plate. The reaction mixture comprised 180 μL of fluorescein (116.9 nM) and 90 μL of 2,2’-azobis(2-amidinopropane) dihydrochloride (AAPH) (40 mM). Finally, the fluorescence was recorded every 2 min for 150 min at excitation and emission wavelengths of 485 and 520 nm, respectively. All reactions were performed at 37 °C. The results were expressed as μmol Trolox equivalent (TE)/μmol of peptide. Quantification and interpretation of the data were done by Gen5 software, version 1.1 (BioTek Instruments, Winooski, VT, USA).

[9] = Trolox equivalent antioxidant capacity (TEAC, ABTS radical cation); settings: 734 nm, 6 min, mean ± SD, n = 9
Protocol: The Trolox equivalent antioxidant capacity (TEAC) analysis was performed as described by Sanchez-Velazquez et al. In order to produce ABTS (2,2’-azino-bis(3-ethylbenzthiazoline-6-sulfonic acid) radical cation (ABTS^ ●+ ), ABTS (7 mM) were mixed with potassium persulfate (2.45 mM) in the dark at room temperature (RT 18–21 °C) for 16 h. […] Finally, the reaction was measured at 0 and 6 min at 734 nm (SPARK-10M, TECAN, Switzerland). The percentage of inhibition was calculated as follows: %TEACinhibition=Abs sample0min−Abs sample6min/Abs sample0min−(Abs blank0min−Abs blank6min/Abs blank0min)×100

[10] = tested on: porcine pancreatic α-amylase (PPA); assay: α-Amylase inhibition; assay type: biochemical; settings: CNPG3 substrate, 405 nm, 37 °C, mean ± SD, n = 9
Protocol: α-Amylase inhibition activity was performed using the 3,5-dinitrosalicylic acid (DNS) assay according to Zulfiqar et al. […] Then, 50 μL of substrate (2-chloro-4-nitro-[…] (CNPG3) (2 mM)) was added per well. Finally, absorbance was recorded at 405 nm (SPARK-10M, TECAN, Switzerland) at 37 °C for 10 min in 1-min intervals. The percentage of enzyme inhibition was calculated in relation to 100% enzymatic activity in the negative control (phosphate-buffered saline (PBS) buffer, enzyme, and substrate).

[11] = 125 μM, fluorometric kit, 37 °C, mean ± SD, n = 9
[12] = 250 μM, fluorometric kit, 37 °C, mean ± SD, n = 9
[13] = 500 μM, fluorometric kit, 37 °C, mean ± SD, n = 9

DHSTAVW [synthetic peptide from pearl garlic, Yudho-Sutopo et al]
IC50 [1]: 2.8 µM

KLAKVF [synthetic peptide from pearl garlic, Yudho-Sutopo et al]
IC50 [1]: 77.2 µM

KLSTAASF [synthetic peptide from pearl garlic, Yudho-Sutopo et al]
IC50 [1]: 172 µM

HHGGEFTPV [peptide from velvet antler blood, Ding et al]
anti-LOX activity (inhibition) [2]: ≤ 12%

VGYP [peptide from velvet antler blood, Ding et al]
anti-LOX activity (inhibition) [2]: ≤ 12%

LKECCDKPV [peptide from velvet antler blood, Ding et al]
anti-LOX activity (inhibition) [2]: ≤ 12%

LSQKFPK [peptide from velvet antler blood, Ding et al]
anti-LOX activity (inhibition) [2]: ≤ 12%

C[C@H](CS)C(=O)N1CCC[C@H]1C(=O)O [commercial ACE-I inhibitor, reference compound]
ACE-I inhibition, reference inhibitor ([3]; 50 µM): 80.1%

GQLGEHGGAGMG
LOX inhibition ([2]; millet grain peptides, ref Karas et al. [120]): 50%

KETPEAHVF [synthetic peptide from pearl garlic, Yudho-Sutopo et al]
IC50 [1]: 455 µM

NIYQIS [quinoa 11S globulin peptide, custom-synthesized by GenScript, purity 95%]
α-glucosidase inhibition ([4]; 300 μM): 7.72 ± 0.95^c % | inhibition ([4]; 400 μM): 10.4 ± 0.93% | α-glucosidase inhibition ([4]; 500 μM): 11.93 ± 0.92^b % | DPP-IV inhibition ([5]; 125 μM): ND (no inhibitory effect was observed at the given concentration) | DPP-IV inhibition ([5]; 250 μM): 12.22 ± 0.50^b % | DPP-IV inhibition ([5]; 500 μM): 16.36 ± 0.70^a % | LOX inhibition [6]: 16.20% | ACE-I inhibition [3, 11]: 17.20 ± 0.28^d % | ACE-I inhibition [3, 12]: 31.7 ± 2.40^b % | ACE-I inhibition [3, 13]: 53.0 ± 1.41^a % | Fe^2+ chelating activity [7]: 9.04 ± 0.96% | ORAC [8]: 0.75 μmol TE/μmol peptide | ORAC ([8]; mean ± SD, n = 9): 0.75 μM TE/μM Peptide and 0.75 ± 0.02^a μM TE/μM Peptide | TEAC inhibition (ABTS^●+ inhibition) ([9]; 125 μM): 7.87 ± 0.10% | TEAC inhibition (ABTS^●+ inhibition) ([9]; 250 μM): 7.39 ± 0.19% | TEAC inhibition (ABTS^●+ inhibition) ([9]; 500 μM): 8.19 ± 0.38% | α-amylase inhibition ([10]; 300 μM): ND (no inhibitory effect was observed at the given concentration) | α-amylase inhibition ([10]; 400 μM): ND (no inhibitory effect was observed at the given concentration) | α-amylase inhibition ([10]; 500 μM): did not show significant α-amylase inhibition; also recorded: ND (no inhibitory effect was observed at the given concentration)

YDDER [quinoa 11S globulin peptide, custom-synthesized by GenScript, purity 95%]
α-glucosidase inhibition ([4]; 300 μM): 8.48 ± 0.94^c % | α-glucosidase inhibition ([4]; 400 μM): 8.33 ± 0.94^c % | α-glucosidase inhibition ([4]; 500 μM): 14.86 ± 0.89^a % | DPP-IV inhibition ([5]; 125 μM): ND (no inhibitory effect was observed at the given concentration) | DPP-IV inhibition ([5]; 250 μM): ND (no inhibitory effect was observed at the given concentration) | DPP-IV inhibition ([5]; 500 μM): 3.44 ± 0.50^d % | LOX inhibition [6]: 22.64% | inhibition [3, 11]: 21.1 ± 0.19% | ACE-I inhibition [3, 12]: 24.1 ± 0.18^c % | ACE-I inhibition [3, 13]: 24.3 ± 0.15^c % | Fe^2+ chelating activity [7]: 8.8 ± 1.0% | ORAC [8]: 0.24 μmol TE/μmol peptide | ORAC ([8]; mean ± SD, n = 9): 0.24 ± 0.01^b μM TE/μM Peptide | TEAC inhibition (ABTS^●+ inhibition) ([9]; 250 μM): 7.45 ± 0.19% | TEAC inhibition (ABTS^●+ inhibition) ([9]; 500 μM): 8.7 ± 0.50% | α-amylase inhibition ([10]; 300 μM): 12.20 ± 1.67^c % | α-amylase inhibition ([10]; 400 μM): 11.43 ± 2.04^c % | α-amylase inhibition ([10]; 500 μM): 6.66 ± 0.38^d %
